This is an account of results in paper PMC5428020 (Chemical Science, 2017).

The series is described as follows: Water solubility as observed during handling, NMR and crystallization. It counts as physicochemical.

Fmoc–Q^SO3H–OH [Compound 14]: the “solubility in water (in words)” value is “surprisingly high”.
